Experimental data from the NIST ThermoML archive (doi:10.1016/j.fluid.2019.05.003).
Numbers after ± are expanded uncertainties.

Test: xn = mol fraction of the nth substance listed
Settings: 101 kPa, Liquid; for mass density: Vibrating tube method; for viscosity: Falling or rolling sphere viscometry

C[N+]1(CCO)CCOCC1.[Br-] [N-methyl-N-(2-hydroxyethyl)morpholinium bromide] + O
Settings	mass density [kg/m3]	viscosity [mPa·s]
323.15 K, x1 = 0.023	1066.9 ± 0.6	–
323.15 K, x1 = 0.038	1109 ± 0.6	–
323.15 K, x1 = 0.051	1138.2 ± 0.5	–
323.15 K, x1 = 0.075	1184.5 ± 0.4	–
323.15 K, x1 = 0.097	1218.1 ± 0.4	–
323.15 K, x1 = 0.124	1250.5 ± 0.4	–
323.15 K, x1 = 0.157	1282.8 ± 0.4	–
323.15 K, x1 = 0.197	1313.9 ± 0.4	–
323.15 K, x1 = 0.227	1330.6 ± 0.4	–
328.15 K, x1 = 0.023	1064.7 ± 0.6	0.703 ± 0.043
328.15 K, x1 = 0.038	1106.2 ± 0.6	0.871 ± 0.053
328.15 K, x1 = 0.051	1135.9 ± 0.5	0.982 ± 0.059
328.15 K, x1 = 0.075	1181.6 ± 0.4	1.305 ± 0.079
328.15 K, x1 = 0.097	1215.1 ± 0.4	1.718 ± 0.1
328.15 K, x1 = 0.124	1247.6 ± 0.4	2.4 ± 0.14
328.15 K, x1 = 0.157	1279.8 ± 0.4	3.505 ± 0.21
328.15 K, x1 = 0.197	1310.7 ± 0.4	6.095 ± 0.37
328.15 K, x1 = 0.227	1327.5 ± 0.4	8.272 ± 0.5
333.15 K, x1 = 0.023	1062.5 ± 0.6	0.656 ± 0.04
333.15 K, x1 = 0.038	1103.3 ± 0.6	0.807 ± 0.049
333.15 K, x1 = 0.051	1133.3 ± 0.5	0.913 ± 0.055
333.15 K, x1 = 0.075	1178.7 ± 0.4	1.201 ± 0.073
333.15 K, x1 = 0.097	1212.1 ± 0.4	1.581 ± 0.096
333.15 K, x1 = 0.124	1244.5 ± 0.4	2.186 ± 0.13
333.15 K, x1 = 0.157	1276.7 ± 0.4	3.163 ± 0.19
333.15 K, x1 = 0.197	1307.8 ± 0.4	5.346 ± 0.32
333.15 K, x1 = 0.227	1324.2 ± 0.4	7.316 ± 0.44
338.15 K, x1 = 0.023	1060.1 ± 0.6	0.632 ± 0.038
338.15 K, x1 = 0.038	1101.2 ± 0.6	0.756 ± 0.046
338.15 K, x1 = 0.051	1130.8 ± 0.5	0.849 ± 0.051
338.15 K, x1 = 0.075	1175.6 ± 0.4	1.135 ± 0.069
338.15 K, x1 = 0.097	1209.5 ± 0.4	1.453 ± 0.088
338.15 K, x1 = 0.124	1241.5 ± 0.4	2.007 ± 0.12
338.15 K, x1 = 0.157	1273.5 ± 0.4	2.854 ± 0.17
338.15 K, x1 = 0.197	1304.7 ± 0.4	4.811 ± 0.29
338.15 K, x1 = 0.227	1321.1 ± 0.4	6.504 ± 0.39
343.15 K, x1 = 0.023	1057.7 ± 0.6	0.596 ± 0.036
343.15 K, x1 = 0.038	1098.7 ± 0.6	0.716 ± 0.043
343.15 K, x1 = 0.051	1128.3 ± 0.5	0.796 ± 0.048
343.15 K, x1 = 0.075	1173.2 ± 0.4	1.055 ± 0.064
343.15 K, x1 = 0.097	1206.6 ± 0.4	1.339 ± 0.081
343.15 K, x1 = 0.124	1238.3 ± 0.4	1.873 ± 0.11
343.15 K, x1 = 0.157	1270.4 ± 0.4	2.621 ± 0.16
343.15 K, x1 = 0.197	1301.5 ± 0.4	4.333 ± 0.26
343.15 K, x1 = 0.227	1317.9 ± 0.4	5.834 ± 0.35
348.15 K, x1 = 0.023	1055.3 ± 0.6	0.561 ± 0.034
348.15 K, x1 = 0.038	1096.2 ± 0.6	0.675 ± 0.041
348.15 K, x1 = 0.051	1125.7 ± 0.5	0.749 ± 0.045
348.15 K, x1 = 0.075	1170.4 ± 0.4	0.996 ± 0.06
348.15 K, x1 = 0.097	1203.8 ± 0.4	1.259 ± 0.076
348.15 K, x1 = 0.124	1235.2 ± 0.4	1.719 ± 0.1
348.15 K, x1 = 0.157	1267.6 ± 0.4	2.407 ± 0.15
348.15 K, x1 = 0.197	1298.3 ± 0.4	3.882 ± 0.23
348.15 K, x1 = 0.227	1315.1 ± 0.4	5.243 ± 0.32
